Experimental data: ChEMBL document CHEMBL1201862, “PubChem BioAssay data set” (2004)
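In this assay, cells in 96-well plates receive the compound at five concentrations for 48 hours. Endpoints are linearly interpolated between the surrounding concentrations. At the GI50, growth is halved.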 Calls of active or inactive are those of the source. Cut-off read from the data, not from the text of the source: active = GI50 up to about 1.1 µM and inactive = higher. Where a SMILES comes first, the peptide text is derived from it. Square brackets hold non-standard residues; d marks the D form. Peptide text beside a SMILES is read from it.

Key:
Assay in all cases: DTP human tumour cell line panel, 48 h
OVCAR-3 = test system: OVCAR-3
EKVX = test system: EKVX
SNB-75 = test system: SNB-75
NCI/ADR-RES = test system: NCI/ADR-RES
M19-MEL = test system: M19-MEL
KM12 = test system: KM12
OVCAR-4 = test system: OVCAR-4
UACC-62 = test system: UACC-62
CAKI-1 = test system: CAKI-1
DMS-273 = test system: DMS-273
UO-31 = test system: UO-31
SF-268 = test system: SF-268
HL-60 = test system: HL-60
NCI-H522 = test system: NCI-H522
OVCAR-5 = test system: OVCAR-5
HCT-15 = test system: HCT-15
RXF 393 = test system: RXF 393
Malme-3M = test system: Malme-3M
M14 = test system: M14
TK-10 = test system: TK-10

CN(C)c1cccc(OC(=O)NCCCl)c1
GI50 (OVCAR-3): > 100 µM (inactive)
GI50 (EKVX): > 100 µM (inactive)
GI50 (SNB-75): 63.8 µM (inactive)
GI50 (NCI/ADR-RES): > 100 µM (inactive)
GI50 (M19-MEL): > 100 µM (inactive)
GI50 (KM12): > 100 µM (inactive)
GI50 (OVCAR-4): > 100 µM (inactive)
GI50 (UACC-62): > 100 µM (inactive)
GI50 (CAKI-1): > 100 µM (inactive)
GI50 (DMS-273): > 100 µM (inactive)
GI50 (UO-31): > 100 µM (inactive)
GI50 (SF-268): > 100 µM (inactive)
GI50 (HL-60): > 100 µM (inactive)
GI50 (NCI-H522): > 100 µM (inactive)
GI50 (OVCAR-5): > 100 µM (inactive)
GI50 (HCT-15): > 100 µM

O=C1CCc2cc3c(cc21)CC1(Cc2cc4c(cc2C1)CCCC4)C3
GI50 (OVCAR-3): 53.6 µM (inactive)
GI50 (EKVX): > 100 µM (inactive)
GI50 (RXF 393): 16 µM (inactive)
GI50 (Malme-3M): 90.6 µM (inactive)
GI50 (SNB-75): 14.6 µM (inactive)
GI50 (NCI/ADR-RES): > 100 µM (inactive)
GI50 (M14): 30.3 µM (inactive)
GI50 (TK-10): > 100 µM (inactive)
GI50 (KM12): 51.2 µM (inactive)
GI50 (OVCAR-4): 29 µM (inactive)
GI50 (UACC-62): 39.9 µM (inactive)
GI50 (UO-31): > 100 µM (inactive)
GI50 (SF-268): > 100 µM (inactive)
GI50 (HL-60): 27.9 µM (inactive)
GI50 (NCI-H522): 26 µM (inactive)
GI50 (OVCAR-5): > 100 µM (inactive)
GI50 (HCT-15): 69 µM

O=C(CCN1CCOCC1)C(=Cc1ccccc1)C(=O)CCN1CCOCC1
GI50 (OVCAR-3): 3.97 µM (inactive)
GI50 (EKVX): 2.21 µM (inactive)
GI50 (RXF 393): 1.68 µM (inactive)
GI50 (Malme-3M): 2.45 µM (inactive)
GI50 (SNB-75): 15.5 µM (inactive)
GI50 (NCI/ADR-RES): 2.46 µM (inactive)
GI50 (M19-MEL): 2.83 µM (inactive)
GI50 (KM12): 5.01 µM (inactive)
GI50 (OVCAR-4): 5.28 µM (inactive)
GI50 (UACC-62): 2.31 µM (inactive)
GI50 (CAKI-1): 3.99 µM (inactive)
GI50 (DMS-273): 8.65 µM (inactive)
GI50 (UO-31): 12.3 µM (inactive)
GI50 (SF-268): 6.85 µM (inactive)
GI50 (HL-60): 1.53 µM (inactive)
GI50 (NCI-H522): 1.5 µM (inactive)
GI50 (OVCAR-5): 19.2 µM (inactive)
GI50 (HCT-15): 2.1 µM

O=Cc1cc([N+](=O)[O-])no1
GI50 (OVCAR-3): 40.6 µM (inactive)
GI50 (RXF 393): > 100 µM (inactive)
GI50 (Malme-3M): > 10 µM (inactive)
GI50 (SNB-75): > 100 µM (inactive)
GI50 (NCI/ADR-RES): 52.4 µM (inactive)
GI50 (M14): 17.1 µM (inactive)
GI50 (TK-10): > 100 µM (inactive)
GI50 (KM12): 18.7 µM (inactive)
GI50 (OVCAR-4): 17.2 µM (inactive)
GI50 (UACC-62): 19.7 µM (inactive)
GI50 (CAKI-1): > 100 µM (inactive)
GI50 (UO-31): > 100 µM (inactive)
GI50 (HL-60): 15.9 µM (inactive)
GI50 (OVCAR-5): 71.8 µM (inactive)
GI50 (HCT-15): 36.8 µM

CN(/N=N/c1[nH]cnc1C(N)=O)C1CCCCC1
GI50 (OVCAR-3): 75.7 µM (inactive)
GI50 (EKVX): > 100 µM (inactive)
GI50 (RXF 393): > 100 µM (inactive)
GI50 (Malme-3M): 74.6 µM (inactive)
GI50 (SNB-75): 34.6 µM (inactive)
GI50 (M19-MEL): > 100 µM (inactive)
GI50 (M14): 72.9 µM (inactive)
GI50 (TK-10): 40 µM (inactive)
GI50 (KM12): > 100 µM (inactive)
GI50 (OVCAR-4): 55.1 µM (inactive)
GI50 (UACC-62): 61.7 µM (inactive)
GI50 (DMS-273): 41.2 µM (inactive)
GI50 (SF-268): > 100 µM (inactive)
GI50 (HL-60): 29.5 µM (inactive)
GI50 (NCI-H522): > 100 µM (inactive)
GI50 (OVCAR-5): > 100 µM (inactive)
GI50 (HCT-15): > 100 µM

COC(=O)Cc1c(C2C(CC(=O)OC)c3ccccc3N2C2OC(CO)C(O)C(O)C2O)[nH]c2ccccc12 (centres undefined)
GI50 (OVCAR-3): > 100 µM (inactive)
GI50 (EKVX): > 100 µM (inactive)
GI50 (Malme-3M): > 100 µM (inactive)
GI50 (SNB-75): > 100 µM (inactive)
GI50 (M14): > 100 µM (inactive)
GI50 (TK-10): > 100 µM (inactive)
GI50 (KM12): > 100 µM (inactive)
GI50 (OVCAR-4): > 100 µM (inactive)
GI50 (UACC-62): > 100 µM (inactive)
GI50 (CAKI-1): > 100 µM (inactive)
GI50 (UO-31): > 100 µM (inactive)
GI50 (SF-268): > 100 µM (inactive)
GI50 (NCI-H522): > 100 µM (inactive)
GI50 (OVCAR-5): > 100 µM (inactive)
GI50 (HCT-15): > 100 µM

Clc1ccc(/N=c2\oc3ccccc3cc2-c2nc3ccccc3[nH]2)c(Cl)c1
GI50 (OVCAR-3): > 100 µM (inactive)
GI50 (EKVX): 51.2 µM (inactive)
GI50 (RXF 393): 18.6 µM (inactive)
GI50 (Malme-3M): > 100 µM (inactive)
GI50 (NCI/ADR-RES): > 100 µM (inactive)
GI50 (M14): > 100 µM (inactive)
GI50 (TK-10): 23.8 µM (inactive)
GI50 (KM12): > 100 µM (inactive)
GI50 (OVCAR-4): > 100 µM (inactive)
GI50 (UACC-62): 24.6 µM (inactive)
GI50 (CAKI-1): > 100 µM (inactive)
GI50 (UO-31): > 100 µM (inactive)
GI50 (SF-268): 24.2 µM (inactive)
GI50 (HL-60): > 100 µM (inactive)
GI50 (NCI-H522): 78.5 µM (inactive)
GI50 (OVCAR-5): > 100 µM (inactive)
GI50 (HCT-15): > 100 µM

O=C(O)c1cc2c(ncc3c(=O)n(-c4ccccc4)[nH]c32)s1
GI50 (OVCAR-3): > 100 µM (inactive)
GI50 (EKVX): > 100 µM (inactive)
GI50 (RXF 393): > 100 µM (inactive)
GI50 (Malme-3M): > 100 µM (inactive)
GI50 (M19-MEL): > 100 µM (inactive)
GI50 (M14): > 100 µM (inactive)
GI50 (TK-10): > 100 µM (inactive)
GI50 (KM12): > 100 µM (inactive)
GI50 (OVCAR-4): > 100 µM (inactive)
GI50 (UACC-62): > 100 µM (inactive)
GI50 (CAKI-1): > 100 µM (inactive)
GI50 (DMS-273): > 100 µM (inactive)
GI50 (UO-31): > 100 µM (inactive)
GI50 (SF-268): > 100 µM (inactive)
GI50 (NCI-H522): > 100 µM (inactive)
GI50 (OVCAR-5): > 100 µM (inactive)
GI50 (HCT-15): > 100 µM

CC(C)C[C@H](NC(=O)[C@H](CC(C)C)NC(=O)[C@@H](Cc1c[nH]c2ccccc12)NC(=O)[C@H](Cc1ccccc1)NC(=O)[C@@H](Cc1c[nH]c2ccccc12)NC(=O)[C@H](CCC(N)=O)NC(=O)[C@@H](CCC(N)=O)NC(=O)[C@@H]1CCCN1C(=O)[C@@H](CCCCN)NC(=O)[C@H]1CCCN1C(=O)[C@H](N)CCCN=C(N)N)C(N)=O (H-[dR][dP][dK]P[dQ]Q[dW]F[dW]LL-NH2)
GI50 (OVCAR-3): > 86.3 µM (inactive)
GI50 (EKVX): > 100 µM (inactive)
GI50 (RXF 393): > 100 µM (inactive)
GI50 (Malme-3M): > 31.6 µM (inactive)
GI50 (SNB-75): > 100 µM (inactive)
GI50 (NCI/ADR-RES): > 100 µM (inactive)
GI50 (M19-MEL): > 100 µM (inactive)
GI50 (KM12): > 100 µM (inactive)
GI50 (OVCAR-4): > 100 µM (inactive)
GI50 (UACC-62): > 100 µM (inactive)
GI50 (DMS-273): > 100 µM (inactive)
GI50 (UO-31): > 100 µM (inactive)
GI50 (SF-268): > 100 µM (inactive)
GI50 (HL-60): > 100 µM (inactive)
GI50 (NCI-H522): > 100 µM (inactive)
GI50 (OVCAR-5): > 100 µM (inactive)
GI50 (HCT-15): > 100 µM

CC1NC(=O)CNC(=O)CNC(=O)C(Cc2ccc(O)cc2)NC(=O)C(C(C)C)NC(=O)C(C)NC1=O (centres undefined) (cyclo(GGAAVY); configuration not given here)
GI50 (OVCAR-3): > 100 µM (inactive)
GI50 (EKVX): > 100 µM (inactive)
GI50 (SNB-75): > 100 µM (inactive)
GI50 (NCI/ADR-RES): > 100 µM (inactive)
GI50 (M19-MEL): > 100 µM (inactive)
GI50 (KM12): > 100 µM (inactive)
GI50 (OVCAR-4): 10.7 µM (inactive)
GI50 (UACC-62): > 100 µM (inactive)
GI50 (CAKI-1): > 100 µM (inactive)
GI50 (DMS-273): > 100 µM (inactive)
GI50 (UO-31): > 100 µM (inactive)
GI50 (SF-268): > 100 µM (inactive)
GI50 (HL-60): > 100 µM (inactive)
GI50 (OVCAR-5): > 100 µM (inactive)
GI50 (HCT-15): > 100 µM
